In US7608604B2, “Antiparasitic agents” (Pfizer Limited, priority 2007, dated 2009):

Tested on: Haemonchus contortus L3
Experiment: Haemonchus contortus L3 (HcL3) in vitro test
Format: cell-based
Conditions: minimum effective dose
Method: The Haemonchus contortus L3 (HcL3) test is used to measure the biological activities of the compounds claimed. The assay involves in vitro testing against H. contortus conducted according to the following general procedure.
HcL3 larvae were collected from infected sheep and, after cleaning, stored in water at 12° C. for up to one month. Viable infective larvae were exsheathed using 10% hypochlorite in Glucose Tyrodes balanced salt solution containing antibiotics and resuspended in basal medium (20 g/l bacto-tryptone, 5 g/l yeast extract, 57 g/l glucose, 0.8 g/l di-Potassium hydrogen orthophosphate, 0.8 g/l potassium dihydrogen orthophosphate and […] Hepes with antibiotics). 95 μl worm suspension was added to each well of a 96 well plate.
Test compounds were dissolved in dimethylsulfoxide to give a working stock solution of 20 mg/ml. The stock concentration was diluted 1:10 in Basal media to give 2.0 mg/ml (10% DMSO). 5 μl of the stock compound solution was added to the worm suspension to give a final concentration of 100 μg/ml. Plates were sealed with pressure sensitive film and incubated at 37° C. Observations were made 2 hrs, 24 hrs, 48 hrs, 72 hrs and 4 days post-treatment using an inverted microscope. Activity was recorded if a significant proportion of the worms were dead or adversely affected by the compound when compared to the control well containing 1% DMSO. Compounds were initially tested at 100 μg/ml, wherefrom relevant dose responses (100, 30, 10, 3, 1, 0.3, 0.1 μg/ml) were conducted in duplicate experiments to generate n=2. Data was recorded as minimum effective dose.

[1] = table of Examples 13a-42, 13a/b, 27a/b, 29a/b, 33a/b tested as mixtures of regioisomers
[2] = exsheathed L3 larvae in vitro, 37° C., observed up to 4 days, n=2

**Q.** With `CC(C#N)(COc1cc(C#N)cc(C(N)=O)c1)NC(=O)c1ccc(S(F)(F)(F)(F)F)cc1` (racemic) [Example 53, 3-Cyano-5-(2-cyano-2-{[4-(pentafluorothio)benzoyl]amino}propoxy)benzamide] as the compound, how does the “in vitro H.c. (L3) MED” value (unit not given) read?
**A.** 30

**Q.** With “N-[2-(3-Chloro-4-fluorophenoxy)-1-cyano-1-methylethyl]-4-(pentafluorothio)benzamide [Example 13b]” as the compound, how does the “H.c. (L3) MED” value [1] read?
**A.** 1 µg/mL

**Q.** For `CC(C#N)(COc1c(F)cc(C#N)cc1F)NC(=O)c1ccc(S(F)(F)(F)(F)F)cc1` (stereo not drawn) [Example 51, N-[1-Cyano-2-(4-cyano-2,6-difluorophenoxy)-1-methylethyl]-4-(pentafluorothio)benzamide], which “H.c. (L3) MED” value (table of Examples 51-52) is on record?
**A.** 3 µg/mL

**Q.** With `CC(C#N)(COc1ccc(C(N)=O)cc1C(F)(F)F)NC(=O)c1ccc(S(F)(F)(F)(F)F)cc1` (racemic) [Example 43, 4-(2-Cyano-2-{[4-(pentafluorothio)benzoyl]amino}propoxy)-3-(trifluoromethyl)benzamide] as the compound, how does the “in vitro H.c. (L3) MED” value (unit not given) read?
**A.** 1

**Q.** How did the “H.c. (L3) MED” value [1] turn out when `CC(C#N)(COc1cccc(C#N)c1Br)NC(=O)c1ccc(S(F)(F)(F)(F)F)cc1` (stereo not drawn) [Example 37, N-[2-(2-Bromo-3-cyanophenoxy)-1-cyano-1-methylethyl]-4-(pentafluorothio)benzamide] was run?
**A.** 3 µg/mL

**Q.** Which “H.c. (L3) MED” value (table of Examples 5-11) does the source give for `CC(C#N)(COc1ccc(C#N)cc1Br)NC(=O)c1ccc(S(F)(F)(F)(F)F)cc1` (stereo not drawn) [Example 11, N-[2-(2-Bromo-4-cyanophenoxy)-1-cyano-1-methylethyl]-4-(pentafluorothio)benzamide] here?
**A.** 3 µg/mL

**Q.** `CC(C#N)(COc1ccc(C#N)cc1C(F)(F)F)NC(=O)c1ccc(S(F)(F)(F)(F)F)cc1` (single isomer, unassigned) [Example 3b, N-{1-Cyano-2-[4-cyano-2-(trifluoromethyl)Phenoxy]-1-methylethyl}-4-(pentafluorothio)benzamide] was tested. Which “in vitro H.c. (L3) MED” value [2] did it give?
**A.** 1 µg/mL

**Q.** With `CC(C#N)(COc1ccc(C#N)cc1C(F)(F)F)NC(=O)c1ccc(S(F)(F)(F)(F)F)cc1` (single isomer, unassigned) [Example 3c, N-{1-Cyano-2-[4-cyano-2-(trifluoromethyl)Phenoxy]-1-methylethyl}-4-(pentafluorothio)benzamide] as the compound, how does the “in vitro H.c. (L3) MED” value [2] read?
**A.** > 30 µg/mL

**Q.** With “N-[2-(2-Chloro-4-fluorophenoxy)-1-cyano-1-methylethyl]-4-(pentafluorothio)benzamide [Example 13a]” as the compound, how does the “H.c. (L3) MED” value [1] read?
**A.** 1 µg/mL

**Q.** Which “H.c. (L3) MED” value [1] does the source give for `CC(C#N)(COc1ccc(Br)cc1C#N)NC(=O)c1ccc(S(F)(F)(F)(F)F)cc1` (stereo not drawn) [Example 41, N-[2-(4-Bromo-2-cyanophenoxy)-1-cyano-1-methylethyl]-4-(pentafluorothio)benzamide] here?
**A.** 10 µg/mL

**Q.** Which “H.c. (L3) MED” value [1] does the source give for `CC(C#N)(COc1ccc(F)c(Br)c1)NC(=O)c1ccc(S(F)(F)(F)(F)F)cc1` (stereo not drawn) [Example 33b, N-[2-(3-Bromo-4-fluorophenoxy)-1-cyano-1-methylethyl]-4-(pentafluorothio)benzamide] here?
**A.** 10 µg/mL

**Q.** With `CC(C#N)(COc1cccc(Cl)c1C(F)(F)F)NC(=O)c1ccc(S(F)(F)(F)(F)F)cc1` (stereo not drawn) [Example 52, N-{2-[3-Chloro-2-(trifluoromethyl)phenoxy]-1-cyano-1-methylethyl}-4-(pentafluorothio)benzamide] as the compound, how does the “H.c. (L3) MED” value (table of Examples 51-52) read?
**A.** 10 µg/mL
